Columns and labels:
ECHCG [1] = test: Pre-emergence action against ECHCG, 1280 g/ha; format: in vivo, Echinochloa crus-galli; conditions: visual scoring after about 3 weeks vs untreated controls, 100% = plants have died, 0% = like control plants
In short: (§1)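 Activity was scored visually as percent versus untreated controls about 3 weeks after treatment (100% = dead plants, 0% = control-like). Compounds, formulated as wettable powders or emulsion concentrates, were sprayed onto the covering soil over freshly sown seeds in sandy loam, with 0.5% additive and 600 L/ha water.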

POAAN [2] = test: Pre-emergence action against POAAN, 1280 g/ha; format: in vivo, Poa annua; conditions: visual scoring after about 3 weeks vs untreated controls, 100% = plants have died, 0% = like control plants
In short: as §1

SETVI [3] = test: Pre-emergence action against SETVI, 1280 g/ha; format: in vivo, Setaria viridis; conditions: visual scoring after about 3 weeks vs untreated controls, 100% = plants have died, 0% = like control plants
In short: as §1

AMARE [4] = test: Pre-emergence action against AMARE, 1280 g/ha; format: in vivo, Amaranthus retroflexus; conditions: scored visually after about 3 weeks vs untreated controls (100% = plants have died)
In short: as §1

MATIN = test: Pre-emergence action against MATIN, 1280 g/ha; format: in vivo, Tripleurospermum inodorum (Matricaria inodora); conditions: scored visually after about 3 weeks vs untreated controls (100% = plants have died)
In short: as §1

STEME = test: Pre-emergence action against STEME, 1280 g/ha; format: in vivo, Stellaria media; conditions: scored visually after about 3 weeks vs untreated controls (100% = plants have died)
In short: as §1

ALOMY = test: Pre-emergence action at 320 g/ha against ALOMY; format: in vivo, Alopecurus myosuroides; conditions: scored visually after about 3 weeks vs untreated controls (100% = plants have died)
In short: (§2)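 WP/EC formulations applied pre-emergence to covering soil, water rate 600 l/ha, 0.5% additive. Greenhouse, ~3 weeks. Visual % damage vs untreated (0–100%).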

DIGSA = test: Pre-emergence action at 320 g/ha against DIGSA; format: in vivo, Digitaria sanguinalis; conditions: visual scoring after about 3 weeks vs untreated controls
In short: as §2

SETVI [5] = test: Pre-emergence action at 320 g/ha against SETVI; format: in vivo, Setaria viridis; conditions: visual scoring after about 3 weeks vs untreated controls
In short: as §2

AMARE [6] = test: Pre-emergence action at 320 g/ha against AMARE; format: in vivo, Amaranthus retroflexus; conditions: visual scoring after about 3 weeks vs untreated controls
In short: as §2

POLCO = test: Pre-emergence action at 320 g/ha against POLCO; format: in vivo, Fallopia convolvulus (Polygonum convolvulus); conditions: visual scoring after about 3 weeks vs untreated controls
In short: as §2

ECHCG [7] = test: Post-emergence action against ECHCG, 1.28 kg/ha; format: in vivo, Echinochloa crus-galli; conditions: dosage 1280 g/ha, visual rating about 3 weeks after treatment vs untreated controls
In short: (§3)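 Activity scored visually roughly 3 weeks after treatment against untreated plants (0% = as control, 100% = dead). Plants grown in sandy loam in greenhouse, treated at one-leaf stage, 2–3 weeks post-sowing, with WP/EC spray containing 0.5% additive at 600 l/ha.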

POAAN [8] = test: Post-emergence action against POAAN, 1.28 kg/ha; format: in vivo, Poa annua; conditions: dosage 1280 g/ha, visual rating about 3 weeks after treatment vs untreated controls
In short: as §3

| SMILES | Pre-emergence action against ECHCG (ECHCG [1]) | Pre-emergence action against POAAN (POAAN [2]) | Pre-emergence action against SETVI (SETVI [3]) | Pre-emergence action against AMARE (AMARE [4]) | Pre-emergence action against MATIN (MATIN) | Pre-emergence action against STEME (STEME) | Pre-emergence action at 320 g/ha against ALOMY in % (ALOMY) | Pre-emergence action against DIGSA in % (DIGSA) | Pre-emergence action against SETVI in % (SETVI [5]) | Pre-emergence action against AMARE in % (AMARE [6]) | Pre-emergence action against POLCO in % (POLCO) | Post-emergence action against ECHCG (ECHCG [7]) | Post-emergence action against POAAN (POAAN [8]) |
| --- | --- | --- | --- | --- | --- | --- | --- | --- | --- | --- | --- | --- | --- |
| COC(=O)[C@@H](C)Oc1nn(-c2ccccc2)c(-c2cncnc2)c1Br [VI-013] | 100% | 100% | 100% | 100% | 90% | 100% | 90% | 100% | 100% | 90% | 90% | 100% | 100% |
| COC(=O)C(C)Oc1nn(-c2ccccc2)c(-c2ccc(F)nc2)c1Br (stereo not drawn) [VII-026] | 90% | 100% | 100% | 100% | 90% | 90% | 100% | 100% | 80% | 100% | 100% | 90% | 100% |
| COC(=O)COc1nn(-c2ccc(F)cc2)c(-c2cccnc2)c1Br [VII-028] | 100% | 100% | 100% | 90% | 100% | 100% | 100% | 90% | 100% | 90% | 90% | 90% | 90% |
| CCC(Oc1nn(-c2ccccc2F)c(-c2ccc(F)nc2)c1Br)C(=O)OC (stereo not drawn) [VII-029] | 100% | 100% | 100% | 100% | 100% | 100% | 90% | 100% | 90% | 100% | 100% | 100% | 100% |
| CCOC(=O)COc1nn(-c2ccccc2F)c(-c2ccc(F)nc2)c1I [VII-036] | 100% | 100% | 100% | 100% | 100% | 100% | 100% | 100% | 100% | 100% | 100% | 90% | 100% |
| O=C(O)COc1nn(-c2ccccc2F)c(-c2ccnc(F)c2)c1Br [VIII-004] | 100% | 100% | 100% | 100% | 100% | 100% | 100% | 100% | 90% | 100% | 90% | 90% | 100% |

From patent publication US12180187B2, “1-phenyl-5-azinylpyrazolyl-3-oxyalkyl acids and their use for controlling unwanted plant growth” (BAYER AKTIENGESELLSCHAFT, priority 2019, dated 2024)
